Source: patent publication US20250352520A1, “USE OF DEXPRAMIPEXOLE FOR THE TREATMENT OF EOSINOPHILIC COPD” (Areteia Therapeutics, Inc., priority 2024, published 2025)

Conditions: Week 8; <50% AEC reduction at Week 16

CCCN[C@@H]1CCc2nc(N)sc2C1 [Dexpramipexole, (6R)-2-amino-4,5,6,7-tetrahydro-6-(propylamino)benzothiazole]
Pre-BD FEF25-75 % change from baseline, Max: 58%
Pre-BD FEF25-75 % change from baseline, Mean ± SD: 30.4 ± 31.72%
Pre-BD FEF25-75 % change from baseline, Median: 38.4%
Pre-BD FEF25-75 % change from baseline, Min: −14%
Pre-BD FEF25-75 % change from baseline, Q1: 8%
Pre-BD FEF25-75 % change from baseline, Q3: 53%
Pre-BD FEF25-75 Observed, Max: 2050 mL/s
Pre-BD FEF25-75 Observed, Mean ± SD: 875.0 ± 790.55 mL/s
Pre-BD FEF25-75 Observed, Median: 535.0 mL/s
Pre-BD FEF25-75 Observed, Min: 380 mL/s
Pre-BD FEF25-75 Observed, Q1: 410 mL/s
Pre-BD FEF25-75 Observed, Q3: 1340 mL/s
Pre-BD FEF25-75 change from baseline, Max: 660 mL/s
Pre-BD FEF25-75 change from baseline, Mean ± SD: 200.0 ± 324.14 mL/s
Pre-BD FEF25-75 change from baseline, Median: 120.0 mL/s
Pre-BD FEF25-75 change from baseline, Min: -100 mL/s
Pre-BD FEF25-75 change from baseline, Q1: 0 mL/s
Pre-BD FEF25-75 change from baseline, Q3: 400 mL/s
Pre-BD FEV1 % change from baseline, Max: 41%
Pre-BD FEV1 % change from baseline, Mean ± SD: 16.0 ± 19.59%
Pre-BD FEV1 % change from baseline, Median: 13.2%
Pre-BD FEV1 % change from baseline, Min: −4%
Pre-BD FEV1 % change from baseline, Q1: 1%
Pre-BD FEV1 % change from baseline, Q3: 31%
Pre-BD FEV1 Observed, Max: 2940 mL
Pre-BD FEV1 Observed, Mean ± SD: 1755.0 ± 860.79 mL
Pre-BD FEV1 Observed, Median: 1600.0 mL
Pre-BD FEV1 Observed, Min: 880 mL
Pre-BD FEV1 Observed, Q1: 1215 mL
Pre-BD FEV1 Observed, Q3: 2295 mL
Pre-BD FEV1 change from baseline, Max: 860 mL
Pre-BD FEV1 change from baseline, Mean ± SD: 282.5 ± 410.23 mL
Pre-BD FEV1 change from baseline, Median: 165.0 mL
Pre-BD FEV1 change from baseline, Min: -60 mL
Pre-BD FEV1 change from baseline, Q1: -5 mL
Pre-BD FEV1 change from baseline, Q3: 570 mL
Pre-BD FVC % change from baseline, Max: 17%
Pre-BD FVC % change from baseline, Mean ± SD: 4.5 ± 11.70%
Pre-BD FVC % change from baseline, Median: 5.1%
Pre-BD FVC % change from baseline, Min: −9%
Pre-BD FVC % change from baseline, Q1: −5%
Pre-BD FVC % change from baseline, Q3: 14%
Pre-BD FVC Observed, Max: 3990 mL
Pre-BD FVC Observed, Mean ± SD: 3162.5 ± 792.10 mL
Pre-BD FVC Observed, Median: 3175.0 mL
Pre-BD FVC Observed, Min: 2310 mL
Pre-BD FVC Observed, Q1: 2500 mL
Pre-BD FVC Observed, Q3: 3825 mL
Pre-BD FVC change from baseline, Max: 540 mL
Pre-BD FVC change from baseline, Mean ± SD: 167.5 ± 353.02 mL
Pre-BD FVC change from baseline, Median: 185.0 mL
Pre-BD FVC change from baseline, Min: -240 mL
Pre-BD FVC change from baseline, Q1: -120 mL
Pre-BD FVC change from baseline, Q3: 455 mL
Pre-BD Peak Flow % change from baseline, Max: 500%
Pre-BD Peak Flow % change from baseline, Mean ± SD: 136.0 ± 243.51%
Pre-BD Peak Flow % change from baseline, Median: 28.5%
Pre-BD Peak Flow % change from baseline, Min: −13%
Pre-BD Peak Flow % change from baseline, Q1: 4%
Pre-BD Peak Flow % change from baseline, Q3: 268%
Pre-BD Peak Flow Observed, Max: 319 L/min
Pre-BD Peak Flow Observed, Mean ± SD: 227.0 ± 70.68 L/min
Pre-BD Peak Flow Observed, Median: 217.5 L/min
Pre-BD Peak Flow Observed, Min: 154 L/min
Pre-BD Peak Flow Observed, Q1: 175 L/min
Pre-BD Peak Flow Observed, Q3: 280 L/min
Pre-BD Peak Flow change from baseline, Max: 200 L/min
Pre-BD Peak Flow change from baseline, Mean ± SD: 70.5 ± 97.89 L/min
Pre-BD Peak Flow change from baseline, Median: 55.5 L/min
Pre-BD Peak Flow change from baseline, Min: -29 L/min
Pre-BD Peak Flow change from baseline, Q1: -1 L/min
Pre-BD Peak Flow change from baseline, Q3: 142 L/min
